According to patent publication US6863647B2, “2-Ureido-thiazole derivatives, process for their preparation, and their use as antitumor agents” (Pharmacia & Upjohn S.p.A., priority 1998, dated 2005):

Target: cdk2/cyclin A complex (Homo sapiens, UniProt P24941)
Assay: inhibition assay of cdk2/Cyclin A activity (MultiScreen-PH phosphocellulose filter, 33P-labelled histone H1)
Format: biochemical
Details: histone H1 substrate, 25 μM ATP; inhibitor 0.0045 to 10 μM; read-out: inhibiting activity towards the cdk2/cyclin A complex (IC50)
Description: The inhibiting activity of putative cdk/cyclin inhibitors and the potency of selected compounds was determined through a method of assay based on the use of the MultiScreen-PH 96 well plate (Millipore), in which a phosphocellulose filter paper was placed at each well bottom allowing binding of positive charged substrate after a washing/filtration step.
When a radioactivity labelled phosphate moiety was transferred by the ser/threo kinase to the filter-bound histone, light emitted was measured in a scintillation counter.
The inhibition assay of cdk2/Cyclin A activity was performed according to the following protocol: • Kinase reaction: 1.5 μM histone H1 substrate, 25 μM ATP (0.5 μCi P^33γ-ATF), 30 ng Cyclin A/cdk2 complex, 10 μM inhibitor in a final volume of 100 μl buffer (TRIS HCl 10 mM pH 7.5, MgCl2 10 mM, 7.5 mM DTT) were added to each well of a 96 U bottom well plate. […] Plates were then washed 3 times with 150 μl/well PBS Ca^++/Mg^++ free and filtered by MultiScreen filtration system. • Detection: filters were allowed to dry at 37° C., then 100 μl/well scintillant were added and ^33P labelled histone H1 was detected by radioactivity counting in the Top-Count instrument. • Results: data were analysed and expressed as % inhibition referred to total activity of enzyme (=100%). […]

An IC50 of 560 nM was found for Cc1cc(C)cc(NC(=O)Nc2ncc(C(C)C)s2)c1 [N-(5-isopropyl-1,3-thiazol-2-yl)-N′-(3,5-dimethylphenyl)urea] in this work.
